According to patent US9695155B2, “Herbicidal substituted pyrimidinyloxy benzene compounds” (E. I. DU PONT DE NEMOURS AND COMPANY, priority 2013, dated 2017):

Legend:
morningglory [1] = assay: Test A preemergence; assay type: in vivo, Ipomoea spp.; conditions: Ipomoea, pre-emergence, 240 h, read-out: Morningglory plant response rating
Summary of the method: (§1)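 Injury scores run from 0, no effect, to 100, complete control, judged by eye against untreated plants roughly 10 days after treatment. Chemicals carried a surfactant in a non-phytotoxic solvent and went onto loam–sand soil preemergence or onto one- to two-leaf seedlings postemergence.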

johnsongrass = assay: Test C postemergence; assay type: in vivo, Sorghum halepense; conditions: Sorghum halepense, post-emergence
Summary of the method: (§2)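 Injury was assessed visually against controls 13 to 15 days after application, with 0 meaning no effect and 100 full control; missing entries are shown as a dash. Preemergence sprays hit seeded loam–sand soil, postemergence sprays hit 1- to 4-leaf plants.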

blackgrass [2] = assay: Test C postemergence; assay type: in vivo, Alopecurus myosuroides; conditions: Alopecurus myosuroides, post-emergence
Summary of the method: as §2

barnyardgrass [3] = assay: Test B flooded paddy test; assay type: in vivo, Echinochloa crus-galli; conditions: Echinochloa crus-galli; Flood, 250 g ai/ha; 0 to 100 scale where 0 is no effect and 100 is complete control; read-out: Plant response rating, Barnyardgrass
Summary of the method: (§3)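 Scores from 0 (no effect) to 100 (complete control) are visual comparisons with controls, taken 13 to 15 days after compound was applied into floodwater 3 cm deep around 2-leaf plants.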

blackgrass [4] = assay: Test C preemergence; assay type: in vivo, Alopecurus myosuroides; conditions: Alopecurus myosuroides, pre-emergence
Summary of the method: as §2

wild oat = assay: Test C postemergence; assay type: in vivo, Avena fatua; conditions: Avena fatua, post-emergence
Summary of the method: as §2

corn = assay: Test A preemergence; assay type: in vivo, Zea mays; conditions: Zea mays, pre-emergence, 240 h, read-out: Corn plant response rating
Summary of the method: as §1

large (Lg) crabgrass [5] = assay: Test C preemergence; assay type: in vivo, Digitaria sanguinalis; conditions: Digitaria sanguinalis, pre-emergence
Summary of the method: as §2

morningglory [6] = assay: Test A postemergence; assay type: in vivo, Ipomoea spp.; conditions: Ipomoea, post-emergence, 240 h
Summary of the method: as §1

large (Lg) crabgrass [7] = assay: Test A preemergence; assay type: in vivo, Digitaria sanguinalis; conditions: Digitaria sanguinalis, pre-emergence, 240 h, read-out: Crabgrass, Large plant response rating
Summary of the method: as §1

barnyardgrass [8] = assay: Test A preemergence; assay type: in vivo, Echinochloa crus-galli; conditions: Echinochloa crus-galli, pre-emergence, 240 h, read-out: Barnyardgrass plant response rating
Summary of the method: as §1

wheat = assay: Test A postemergence; assay type: in vivo, Triticum aestivum; conditions: Triticum aestivum, post-emergence, 240 h
Summary of the method: as §1

Italian ryegrass = assay: Test C preemergence; assay type: in vivo, Lolium multiflorum; conditions: Lolium multiflorum, pre-emergence
Summary of the method: as §2

wheat, winter = assay: Test C preemergence; assay type: in vivo, Triticum aestivum; conditions: Triticum aestivum, pre-emergence
Summary of the method: as §2

large (Lg) crabgrass [9] = assay: Test A postemergence; assay type: in vivo, Digitaria sanguinalis; conditions: Digitaria sanguinalis, post-emergence, 240 h
Summary of the method: as §1

Heteranthera limosa = assay: Test B flooded paddy test; assay type: in vivo; conditions: Heteranthera limosa, Flood, 250 g ai/ha; 0 to 100 scale where 0 is no effect and 100 is complete control; read-out: Plant response rating, Ducksalad
Summary of the method: as §3

[10] = 125 g ai/ha, 0 to 100 scale where 0 is no effect and 100 is complete control
[11] = 500 g ai/ha, 0 to 100 scale, 0 no effect, 100 complete control, approx. 10 days

SMILES: Clc1cnc(Oc2ccccc2-n2cc(Br)cn2)nc1 [Compound 7, 2-[2-(4-bromo-1H-pyrazol-1-yl)phenoxy]-5-chloropyrimidine]
- pest or weed control at 125 g/ha (morningglory [1]; [10]): 20%
- pest or weed control at 500 g/ha (morningglory [1]; [11]): 70%
- pest or weed control at 125 g/ha (johnsongrass; 125 g ai/ha, postemergence, read-out: Plant response rating (0 to 100), Johnsongrass): 5%
- pest or weed control at 250 g/ha (johnsongrass; 250 g ai/ha, postemergence, read-out: Plant response rating (0 to 100), Johnsongrass): 10%
- pest or weed control at 31 g/ha (johnsongrass; Postemergence, 31 g ai/ha, scale 0 to 100 (0 no effect, 100 complete control), 13 to 15 days, read-out: Plant response rating, Johnsongrass): 0%
- pest or weed control at 62 g/ha (johnsongrass; Postemergence, 62 g ai/ha, scale 0 to 100 (0 no effect, 100 complete control), read-out: Plant response rating, Johnsongrass): 0%
- pest or weed control at 125 g/ha (blackgrass [2]; 125 g ai/ha, postemergence, read-out: Plant response rating (0 to 100), Blackgrass): 45%
- pest or weed control at 250 g/ha (blackgrass [2]; 250 g ai/ha, postemergence, read-out: Plant response rating (0 to 100), Blackgrass): 50%
- pest or weed control at 31 g/ha (blackgrass [2]; Postemergence, 31 g ai/ha, scale 0 to 100 (0 no effect, 100 complete control), 13 to 15 days, read-out: Plant response rating, Blackgrass): 5%
- pest or weed control at 62 g/ha (blackgrass [2]; Postemergence, 62 g ai/ha, scale 0 to 100 (0 no effect, 100 complete control), read-out: Plant response rating, Blackgrass): 10%
- pest or weed control at 250 g/ha (barnyardgrass [3]): 30%
- pest or weed control at 62 g/ha (blackgrass [4]; 62 g ai/ha, preemergence, scale 0 (no effect) to 100 (complete control), read-out: Blackgrass plant response rating): 10%
- pest or weed control at 125 g/ha (blackgrass [4]; 125 g ai/ha, preemergence, scale 0 (no effect) to 100 (complete control), read-out: Blackgrass plant response rating): 50%
- pest or weed control at 250 g/ha (blackgrass [4]; 250 g ai/ha, preemergence, scale 0 (no effect) to 100 (complete control), read-out: Blackgrass plant response rating): 85%
- pest or weed control at 31 g/ha (blackgrass [4]; Preemergence, 31 g ai/ha, scale 0 to 100, 0 no effect, 100 complete control, read-out: Plant response rating, Blackgrass): 5%
- pest or weed control at 125 g/ha (wild oat; 125 g ai/ha, postemergence, read-out: Plant response rating (0 to 100), Oat, Wild): 35%
- pest or weed control at 250 g/ha (wild oat; 250 g ai/ha, postemergence, read-out: Plant response rating (0 to 100), Oat, Wild): 55%
- pest or weed control at 31 g/ha (wild oat; Postemergence, 31 g ai/ha, scale 0 to 100 (0 no effect, 100 complete control), 13 to 15 days, read-out: Plant response rating, Oat, Wild): 5%
- pest or weed control at 62 g/ha (wild oat; Postemergence, 62 g ai/ha, scale 0 to 100 (0 no effect, 100 complete control), read-out: Plant response rating, Oat, Wild): 35%
- plant injury at 125 g/ha (corn; [10]): 0%
- plant injury at 500 g/ha (corn; [11]): 30%
- pest or weed control at 62 g/ha (large (Lg) crabgrass [5]; 62 g ai/ha, preemergence, scale 0 (no effect) to 100 (complete control), read-out: Crabgrass, Large plant response rating): 98%
- pest or weed control at 125 g/ha (large (Lg) crabgrass [5]; 125 g ai/ha, preemergence, scale 0 (no effect) to 100 (complete control), read-out: Crabgrass, Large plant response rating): 100%
- pest or weed control at 250 g/ha (large (Lg) crabgrass [5]; 250 g ai/ha, preemergence, scale 0 (no effect) to 100 (complete control), read-out: Crabgrass, Large plant response rating): 100%
- pest or weed control at 31 g/ha (large (Lg) crabgrass [5]; Preemergence, 31 g ai/ha, scale 0 to 100, 0 no effect, 100 complete control, read-out: Plant response rating, Crabgrass, Large): 80%
- pest or weed control at 125 g/ha (morningglory [6]; 125 g ai/ha, 0 to 100 scale where 0 is no effect and 100 is complete control, read-out: Plant response rating, Morningglory): 70%
- pest or weed control at 500 g/ha (morningglory [6]; 500 g ai/ha, 0 to 100 scale, 0 no effect, 100 complete control, read-out: Plant response rating Morningglory): 100%
- pest or weed control at 125 g/ha (large (Lg) crabgrass [7]; [10]): 100%
- pest or weed control at 500 g/ha (large (Lg) crabgrass [7]; [11]): 100%
- pest or weed control at 125 g/ha (barnyardgrass [8]; [10]): 80%
- pest or weed control at 500 g/ha (barnyardgrass [8]; [11]): 100%
- plant injury at 125 g/ha (wheat; 125 g ai/ha, 0 to 100 scale where 0 is no effect and 100 is complete control, read-out: Plant response rating, Wheat): 30%
- plant injury at 500 g/ha (wheat; 500 g ai/ha, 0 to 100 scale, 0 no effect, 100 complete control, read-out: Plant response rating Wheat): 50%
- pest or weed control at 62 g/ha (Italian ryegrass; 62 g ai/ha, preemergence, scale 0 (no effect) to 100 (complete control), read-out: Ryegrass, Italian plant response rating): 0%
- pest or weed control at 125 g/ha (Italian ryegrass; 125 g ai/ha, preemergence, scale 0 (no effect) to 100 (complete control), read-out: Ryegrass, Italian plant response rating): 5%
- pest or weed control at 250 g/ha (Italian ryegrass; 250 g ai/ha, preemergence, scale 0 (no effect) to 100 (complete control), read-out: Ryegrass, Italian plant response rating): 40%
- pest or weed control at 31 g/ha (Italian ryegrass; Preemergence, 31 g ai/ha, scale 0 to 100, 0 no effect, 100 complete control, read-out: Plant response rating, Ryegrass, Italian): 0%
- plant injury at 62 g/ha (wheat, winter; 62 g ai/ha, preemergence, scale 0 (no effect) to 100 (complete control), read-out: Wheat plant response rating): 5%
- plant injury at 125 g/ha (wheat, winter; 125 g ai/ha, preemergence, scale 0 (no effect) to 100 (complete control), read-out: Wheat plant response rating): 10%
- plant injury at 250 g/ha (wheat, winter; 250 g ai/ha, preemergence, scale 0 (no effect) to 100 (complete control), read-out: Wheat plant response rating): 40%
- plant injury at 31 g/ha (wheat, winter; Preemergence, 31 g ai/ha, scale 0 to 100, 0 no effect, 100 complete control, read-out: Plant response rating, Wheat): 0%
- pest or weed control at 125 g/ha (large (Lg) crabgrass [9]; 125 g ai/ha, 0 to 100 scale where 0 is no effect and 100 is complete control, read-out: Plant response rating, Crabgrass, Large): 80%
- pest or weed control at 500 g/ha (large (Lg) crabgrass [9]; 500 g ai/ha, 0 to 100 scale, 0 no effect, 100 complete control, read-out: Plant response rating Crabgrass, Large): 100%
- pest or weed control at 250 g/ha (Heteranthera limosa): 80%
